Test results: patent US20100016250A1, “TOLL-LIKE RECEPTOR 9 AGONISTS” (KYOWA HAKKO KIRIN CO., LTD., priority 2006, published 2010)

Tests used:
NF-κB = test: Promoting effect on NF-κB promoter-dependent transcriptional activity (luciferase reporter); format: cell-based, human; settings: BGERKB5 cells (Namalwa KJM-1 with pIF-luc), 5 hours incubation; FIGS. 2 and 3
Protocol: For the purpose of constructing an evaluation system for determination of NF-κB activity, the following stable transformant cell line was used. NF-κB luciferase reporter plasmid pIF-luc (containing a hygromycin resistant gene expression unit) introduced into cells was prepared by the method described in Japanese Published Unexamined Patent Application No. 169479/00. The plasmid was introduced into a human B-cell line, Namalwa (KJM-1) [Cytotechnology, Vol. 1, p. 151 (1988)], followed by culturing with addition of 0.3 mg/mL hygromycin B to select hygromycin-resistant cells. Among the selected hygromycin-resistant cells, a cell line with which enhancement of luciferase activity by TNF-α (10 ng/mL) stimulation was confirmed (hereinafter referred to as BGERKB5 cells) was used in the following test.
The BGERKB5 cells were suspended in RPMI1640·ITPSG medium having the following composition at a concentration of 1×10^6 cells/mL (hereinafter referred to as the BGERKB5 cell suspension). A test compound was dissolved in phosphate buffer (pH 5) and diluted to a desired concentration with RPMI1640·ITPSG medium to prepare an aqueous solution.
To RPMI1640 medium (Nissui Pharmaceutical Co., Ltd.) were added the following substances at the following concentration or ratio based on the medium (the resulting medium is hereinafter referred to as RPMI1640·ITPSG medium).

IP-10 = settings: BGERKB5 cells, 50 nmol/L, 48 hours, culture supernatant
Protocol: Enzyme-linked immunosorbent assay (ELISA) of IP-10 can be carried out in the following manner.
As a control test, a control group without addition of a test compound was also prepared.
Measurement of the amount of IP-10 produced by the BGERKB5 cells was carried out using an immunoassay kit (BioSource International, Inc.). A calibration curve was prepared using the preparation attached to the kit, and the amount of IP-10 in the culture supernatant was measured.

CD40 = settings: BGERKB5 cells, 50 nmol/L, 12 hours
Protocol: (§1) Flow cytometry analysis of CD40, CD80, CD86, etc., which are co-stimulating molecules important for the activation of lymphocytes, can be carried out in the following manner.
(§2) The BGERKB5 cell suspension having a concentration of 1.1×10^6 cells/mL obtained in Test Example 1 (90 μL) was put into wells of a 96-well plate containing an aqueous solution of a test compound prepared according to the method described in Test Example 1 (10 μL) (final concentration: 50 nmol/L), followed by incubation in a CO2 incubator at 37° C. for 12 hours (test compound group). As a control test, a control group without addition of a test compound was also prepared.
(§3) The following experiments were carried out at a temperature not more than 4° C. The cells were washed twice with 200 μL of phosphate buffer (PBS) containing 1% bovine serum albumin (Fraction V, Sigma) and 0.05% sodium azide, followed by replacement with the same buffer (100 μL). A phycoerythrin-labeled mouse anti-human CD40 monoclonal antibody solution (BD Biosciences), a phycoerythrin-labeled mouse anti-human CD80 monoclonal antibody solution (BD Biosciences) or a phycoerythrin-labeled mouse anti-human CD86 monoclonal antibody solution (BD Biosciences) (2 μL) was added to the cells, and after stirring, the cells were allowed to stand in the dark for 50 minutes.
(§4) The cells were washed twice with 200 μL of phosphate buffer (PBS) containing 1% bovine serum albumin (Fraction V, Sigma) and 0.05% sodium azide, followed by replacement with the same buffer (500 μL).
(§5) The cell count was determined using EPICS XL-MCL (Beckman Coulter, Inc., excitation wavelength 488 nm, argon laser) as a flow cytometer and a positive cell ratio was calculated. As a measurement software, System 2 version 3.0 (Beckman Coulter, Inc.) was used.

CD80 = settings: BGERKB5 cells, 50 nmol/L, 12 hours
Protocol: as §1, §2, §3, §4, §5

CD86 = settings: BGERKB5 cells, 50 nmol/L, 12 hours
Protocol: as §1, §2, §3, §4, §5

CD80 antigen (CD80) = settings: Mock cells, 50 nmol/L, 5 hours; corrected with GAPDH, ratio to solvent control (=1)
Protocol: (§6) The remaining portion (2.6 mL) of each of the cell suspensions of the four groups used in Test Example 4 was incubated in a 15-mL sterile tube for 5 hours. The cells were collected, and the expression levels of genes of glyceraldehyde-3-phosphoate dehydrogenase (GAPDH), luciferase (NF-κB promoter-derived) (NF-κB-LUC), interleukin 12B (IL12B) and CD80 antigen (CD80) were measured by the quantitative RT-PCR method using SYBR-Green [see Bio Techniques, Vol. 22, p. 130-131, p. 134-138 (1997)].
(§7) That is, the cell suspension of each group remaining in the above test was subjected to the following procedure.
(§8) The cell suspension (1×10^6 cells/mL) of each group (2.6 mL: total cell number 2.6×10^6 cells) was centrifuged using himac CF702 centrifuge (Hitachi Koki Co., Ltd.) at 4° C. at 800 rpm for 10 minutes, and after the supernatant was removed using Pipetman, PBS (2 mL) was added. The obtained cell suspension was further centrifuged using himac CF702 centrifuge (Hitachi Koki Co., Ltd.) at 4° C. at 800 rpm for 10 minutes, and the supernatant was removed using Pipetman to obtain cells.
(§9) Total RNA was extracted from the obtained cells using RNeasy Mini Kit (registered trademark: Qiagen, Inc.) according to the manual attached to the kit. By using the obtained total RNA as a template, cDNA was synthesized in the following manner using Super Script First-strand Synthesis System for RT-PCR (Invitrogen Corp.) according to the manual attached to the kit.
(§10) Ten mmol/L dNTPs mixture solution (1.0 μL) and 0.5 μg/μL oligo(dT)12-18 primer (1.0 μL) were added to the […] (5 μg), and the mixture was diluted with an aqueous solution of diethyl pyrocarbonate (DEPC) to make a total volume of 10.0 μL. The obtained solution was heated at 65° C. for 5 minutes, then rapidly cooled on ice, and allowed to stand for more than one minute for denaturation.

[1] = system: glyceraldehyde-3-phosphate dehydrogenase (GAPDH); settings: Mock cells, 50 nmol/L, 5 hours; GAPDH is the internal standard regarded as 1; solvent control = 1
Protocol: as §6, §7, §8, §9, §10

interleukin 12B (IL12B) = settings: Mock cells, 50 nmol/L, 5 hours; corrected with GAPDH, ratio to solvent control (=1)
Protocol: as §6, §7, §8, §9, §10

[2] = system: luciferase (NF-κB promoter-derived) (NF-κB-LUC); settings: Mock cells, 50 nmol/L, 5 hours; corrected with GAPDH, ratio to solvent control (=1)
Protocol: as §6, §7, §8, §9, §10

TLR9 = TLR9 (Homo sapiens, UniProt Q9NR96); settings: BGERKB5 cells without siRNA (Mock), 50 nmol/L, 5 hours
Sequence of TLR9 (Q9NR96 26-1032): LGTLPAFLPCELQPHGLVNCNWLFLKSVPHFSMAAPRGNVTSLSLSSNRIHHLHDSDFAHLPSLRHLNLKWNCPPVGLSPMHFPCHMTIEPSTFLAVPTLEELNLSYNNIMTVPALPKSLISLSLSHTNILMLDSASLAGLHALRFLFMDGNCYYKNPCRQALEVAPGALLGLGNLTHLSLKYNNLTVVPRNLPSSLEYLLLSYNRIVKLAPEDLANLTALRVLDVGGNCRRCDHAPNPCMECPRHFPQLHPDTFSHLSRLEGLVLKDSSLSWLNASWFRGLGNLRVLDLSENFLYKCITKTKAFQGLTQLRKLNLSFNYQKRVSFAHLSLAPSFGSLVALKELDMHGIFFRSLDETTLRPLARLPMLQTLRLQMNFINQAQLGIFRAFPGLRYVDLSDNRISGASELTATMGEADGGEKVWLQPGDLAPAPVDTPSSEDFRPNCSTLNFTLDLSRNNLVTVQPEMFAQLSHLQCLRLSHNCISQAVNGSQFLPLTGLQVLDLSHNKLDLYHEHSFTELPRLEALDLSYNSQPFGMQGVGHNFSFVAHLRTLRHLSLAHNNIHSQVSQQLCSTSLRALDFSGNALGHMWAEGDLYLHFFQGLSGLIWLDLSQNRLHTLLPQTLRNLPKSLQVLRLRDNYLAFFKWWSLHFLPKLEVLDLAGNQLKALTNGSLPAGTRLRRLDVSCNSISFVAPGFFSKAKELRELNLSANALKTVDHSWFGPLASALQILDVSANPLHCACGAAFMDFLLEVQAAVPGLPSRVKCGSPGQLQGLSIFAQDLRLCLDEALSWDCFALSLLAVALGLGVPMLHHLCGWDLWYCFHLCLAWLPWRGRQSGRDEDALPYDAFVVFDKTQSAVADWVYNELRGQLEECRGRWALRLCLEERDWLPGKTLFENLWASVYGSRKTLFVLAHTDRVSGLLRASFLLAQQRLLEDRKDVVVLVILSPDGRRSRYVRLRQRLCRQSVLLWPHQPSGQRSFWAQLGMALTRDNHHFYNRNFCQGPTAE
Protocol: A knockdown test of TLR9 using siRNA in BGERKB5 cells can be carried out in the following manner.
A BGERKB5 cell suspension (0.5 mL) having a concentration of 4×10^5 cells/mL obtained according to the method described in Test Example 1 was seeded into 6 wells of a 24-well plate (total cell number: 1.2×10^6 cells), followed by incubation in a CO2 incubator at 37° C. for 24 hours.
Then, siRNA against TLR9 (Ambion, Inc., pre-designed siRNA, ID#6055, Cat. 16704, Lot. 047951si) was introduced in an amount of 100 pmol per well using lipofectamine 2000 (Invitrogen Corp.).
Twenty-four hours after the siRNA introduction, the medium was replaced with a fresh one, followed by further incubation for 48 hours. The obtained cells were collected in a sterile tube and suspended in RPMI1640·ITPSG medium at a concentration of 1×10^6 cells/mL (TLR9 kd group). “Mock group” containing no siRNA was prepared in the same manner as in the preparation of “TLR9 kd group”. […]
A 400-μL portion from each of the cell suspensions of the four groups (3 mL) was seeded in quadruplicate 100 μL aliquots into a 96-well plate, followed by incubation for 5 hours. Steady-Glo (Promega Corp.) (100 μL) was added and the luciferase activity (RLU) in each well was measured using Multilabel Counter ARVO (Perkin-Elmer Corp.).

Adenosine=5′-(6-deoxy-β-D-mannoheptopyranosyl)-α, β-methylene diphosphate [Compound 30]
luciferase activity (RLU), activating effect on NF-κB (NF-κB): enhancement of luciferase activity was confirmed
amount of IP-10 produced (IP-10): 821 pg/mL

CC(=O)OCC(OC(C)=O)C1OC(OP(=O)(O)OP(=O)(O)OCC2OC(n3cnc4c(N)ncnc43)C(O)C2O)C(OC(C)=O)C(OC(C)=O)C1OC(C)=O [Compound 10, Adenosine=5′-(2,3,4,6,7-penta-O-acetyl-L-glycero-β-D-mannoheptopyranosyl)diphosphate]
luciferase activity (RLU), activating effect on NF-κB (NF-κB): enhancement of luciferase activity was confirmed

Nc1ncnc2c1ncn2C1OC(COP(=O)(O)OP(=O)(O)OC2OC(CCO)C(O)C(O)C2O)C(O)C1O [Compound 2, Adenosine=5′-(6-deoxy-β-D-mannoheptopyranosyl)diphosphate]
luciferase activity (RLU), activating effect on NF-κB (NF-κB): enhancement of luciferase activity was confirmed

CC(=O)OCCC1OC(OP(=O)(O)OP(=O)(O)OCC2OC(n3cnc4c(N)ncnc43)C(O)C2O)C(OC(C)=O)C(OC(C)=O)C1OC(C)=O [Compound 1, Adenosine=5′-(2,3,4,7-tetra-O-acetyl-6-deoxy-β-D-mannoheptopyranosyl)diphosphate]
luciferase activity (RLU), activating effect on NF-κB (NF-κB): enhancement of luciferase activity was confirmed

Nc1ncnc2c1ncn2[C@@H]1O[C@H](COP(=O)(O)OP(=O)(O)O[C@@H]2OC([C@@H](O)CO)[C@@H](O)C(O)C2O)C(O)C1O (stereo partly drawn) [Compound 12, Adenosine=5′-(L-glycero-β-D-mannopyranosyl)diphosphate]
luciferase activity (RLU), activating effect on NF-κB (NF-κB): enhancement of luciferase activity was confirmed

Nc1ncnc2c1ncn2[C@@H]1O[C@H](COP(=O)(O)OP(=O)(O)O[C@@H]2O[C@H]([C@H](O)CO)[C@@H](O)[C@H](O)[C@@H]2O)[C@@H](O)[C@H]1O [Compound 16, Adenosine=5′-(D-glycero-β-D-mannoheptopyranosyl)diphosphate]
luciferase activity (RLU), activating effect on NF-κB (NF-κB): enhancement of luciferase activity was confirmed
Positive cell ratio (%) CD40 (CD40): 93.6%
Positive cell ratio (%) CD80 (CD80): 45.7%
Positive cell ratio (%) CD86 (CD86): 78.4%
amount of IP-10 produced (IP-10): 1441 pg/mL
relative mRNA expression level, CD80, Mock (CD80 antigen (CD80)): 127
relative mRNA expression level, GAPDH, Mock [1]: 1.0
relative mRNA expression level, IL12B, Mock (interleukin 12B (IL12B)): 1.4
relative mRNA expression level, NF-κB-LUC, Mock [2]: 59.7
Luciferase activity (RLU) (mean ± standard error), Mock (TLR9): 7196.7 ± 88.8 RLU

CC(=O)OC[C@@H](OC(C)=O)[C@H]1O[C@@H](OP(=O)(O)OP(=O)(O)OC[C@H]2O[C@@H](n3cnc4c(N)ncnc43)[C@H](O)[C@@H]2O)[C@@H](OC(C)=O)[C@@H](OC(C)=O)[C@@H]1OC(C)=O [Compound 14, Adenosine=5′-(2,3,4,6,7-penta-O-acetyl-D-glycero-β-D-mannoheptopyranosyl)diphosphate]
luciferase activity (RLU), activating effect on NF-κB (NF-κB): enhancement of luciferase activity was confirmed
